ChEMBL document CHEMBL5143632, “Arylalkynyl amide-type peroxisome proliferator-activated receptor γ (PPARγ)-selective antagonists covalently bind to the PPARγ ligand binding domain with a unique binding mode” (Bioorg Med Chem Lett, 2022)
The source made the active and inactive calls. The calls are words filed in the database; no cut-off is given here.

Tests used:
[1] = biological target: T1, Peroxisome proliferator-activated receptor gamma (Homo sapiens) (UniProt P37231); experiment: Covalent binding affinity to apo PPARgamma ligand binding domain (unknown origin) assessed as adduct formation incubated for 24 hrs by ESI-MS analysis
T1 sequence (whole entry): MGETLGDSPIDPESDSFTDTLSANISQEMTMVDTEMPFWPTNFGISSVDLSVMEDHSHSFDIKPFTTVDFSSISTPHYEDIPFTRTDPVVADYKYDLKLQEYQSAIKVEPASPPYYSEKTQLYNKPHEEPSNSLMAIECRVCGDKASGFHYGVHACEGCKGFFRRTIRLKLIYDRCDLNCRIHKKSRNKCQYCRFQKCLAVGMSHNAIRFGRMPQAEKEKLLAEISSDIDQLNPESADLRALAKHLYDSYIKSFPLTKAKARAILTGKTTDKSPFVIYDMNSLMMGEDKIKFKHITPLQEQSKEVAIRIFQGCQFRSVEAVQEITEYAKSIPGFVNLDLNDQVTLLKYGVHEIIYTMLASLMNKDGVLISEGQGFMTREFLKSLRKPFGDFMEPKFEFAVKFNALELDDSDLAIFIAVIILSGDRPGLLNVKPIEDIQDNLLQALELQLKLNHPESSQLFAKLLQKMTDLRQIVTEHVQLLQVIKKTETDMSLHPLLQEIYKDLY

[2] = biological target: T1, Peroxisome proliferator-activated receptor gamma (Homo sapiens); experiment: Covalent binding affinity to apo PPARgamma ligand binding domain (unknown origin) assessed as adduct formation measured within few minutes by ESI-MS analysis

Row | Structure (SMILES) | Activity [1] | Activity [2]
1 | COc1ccc(NC(=O)C#Cc2ccccc2)cc1CNC(=O)c1ccc(N2CCCCC2)cc1 | Active | –
2 | O=C(Nc1ccccc1)c1cc([N+](=O)[O-])ccc1Cl | – | Active
3 | CCCOc1ccc(NC(=O)C#Cc2ccccc2)cc1CNC(=O)c1ccc(-c2ncccn2)cc1 | Active | –
